Test results as given in patent US20160262664A1, “Detection Of Disease Using Gesture Writing Bio-Markers” (priority 2015, published 2016).

Test system: PD patient
Assay: EMG analysis during rest, postural and writing activity in the same subject before and after medication (monitoring of drug effectiveness)
Type: in vivo
Settings: after meds
Description: Technology for detecting Parkinson's disease (PD) comprises of a group of indicators (endpoints) that are based on various Electromyography (EMG) properties of hand muscles during gesture writing as well as kinematics and pen traces. Gesture writing is the type of writing, when part of the time a pen is touching the tablet (writing activity) and part of the time a pen is not touching the tablet (postural activity). During postural period a hand is held against gravity. Postural EMG activity can be found programmatically by analyzing the writing activity, since it is known from the tablet recording when a pen was touching a tablet and not touching the tablet. In addition, EMG at rest is recorded, while both hands are lying on a table. The properties of resting EMG signals are also included in the analysis. Two differential channels of EMG are recorded from each hand. EMG recordings are synchronized with the input from the tablet PC.
In one example, 100 trials were administered. A beep sound denotes the end of one trial and beginning of the next trial. Writing activity was analyzed while a subject was writing a number “3” in cursive. The length of each trial was 5 sec. During “rest,” trials with a length of 5 sec each were generated. Postural trials were selected by a computer program. 100 trials for each type of activity were recorded. A large number of trials (around 100) is very important in the analysis, because muscle activity has high variability. A statistical ensemble is created in order for statistical analysis to be applied. A confidence interval was calculated to confirm the existence of peaks in Fast Fourier Transform (FFT).
Condition 1: Resting. The experimental session started with a recording where the participants were resting with both hands, forearms, and elbows on the table. During one continuous recording the experimenter triggered at least 25 trials of 5 seconds by touching the electronic pen on the tablet after each beep. In total 4 such files were recorded with 1-minute pauses in between, yielding 100 resting trials in total. During the pause the participants rested their hands on their knees.
Condition 2: Character-Writing and postural control of pen lift. After the resting session the participants were instructed to wait with the pen lifted while the entire forearm including elbow rested on the table. Upon hearing the beep participants were to touch the tablet with the pen and write character “3” as fast and convenient as possible and then lift the pen until the next beep. The next beep was automatically generated 4 seconds after the pen lift. As the participants were instructed to keep their forearms resting on the table the thumb muscles were optimally involved in producing character “3”. The non-writing arm rested on the table as in the resting condition. The writing segment was defined as the 5-second segment starting 2 seconds before the pen touched the writing surface till 3 seconds after that (See FIG. 3). We also defined a postural segment starting when the pen was lifted till the beep that was generated 4 seconds later. Thus each trial included a writing segment and a postural segment. The experimenter ensured that after the first trial at least 25 good trials were recorded. The experimenter ensured that at least 25 successful trials were recorded. This means that the subject had to write a complete character and only after that they lift up the pen and waited for a beep to start writing another character. All trials, including incidentally failed trials (except first and last one) were included in the analysis. After recording 25 acceptable trials, the participant was instructed to pause for 1 minute with both hands on the knees like in the resting condition. In total 4 files of 5 minutes were recorded yielding 100 trials.
Our Norconnect DH software (written in MATLAB, MathWorks, Natick, Mass., USA) processed the EMGs and handwriting kinematics to quantify 8 PD indicators (See Table 2). […]

[1] = EMG spectral peak, in 4 channels

C#CCN[C@@H]1CCc2ccccc21 [Rosageline]
Tremor, Postural [1]: No (in 4 | Tremor, Rest [1]: No (in 4 | Stiffness, spectral density maximum, Postural, ch3 (ch3 left hand): ch.3: 2 mV | Stiffness, spectral density maximum, Postural, ch4 (ch4 left hand): ch4: 1.1 (mV) | Weakness, mean intensity, Writing, ch1 (criterion <0.005 mV^2, ch1): ch1: 0.003 mV^2 | Weakness, mean intensity, Writing, ch2 (criterion <0.005 mV^2, ch2): ch2: 0.018 (mV^2) | Stiffness, spectral density maximum, Rest, ch1 (criterion >0.5 mV, ch1 right hand): ch1: 2 mV | Stiffness, spectral density maximum, Rest, ch2 (criterion >0.5 mV, ch2 right hand): ch2: 2.4 mV | Stiffness, spectral density maximum, Rest, ch3 (criterion >0.5 mV, ch3 left hand): ch3: 0.6 mV | Stiffness, spectral density maximum, Rest, ch4 (criterion >0.5 mV, ch4 left hand): ch4: 0.6 (mV) | Stiffness, spectral density maximum, Postural, ch1 (criterion >1 mV, ch1 right hand): ch1: 2 mV | Stiffness, spectral density maximum, Postural, ch2 (criterion >1 mV, ch2 right hand): ch2: 7.5 mV
